In patent US6583154B1, “Compounds and methods which modulate feeding behavior and related diseases” (Amgen Inc., priority 1998, dated 2003) one finds inhibition in vivo and melting point data, which are given here for 33 molecules.

The test system of one data set is Long-Evans male rats. In words: IP administration of compounds in fasted Long-Evans male rats, 2 hr food intake. The format is in vivo. The following applies: Rattus norvegicus; male Long Evans rats fasted 18-20 hr; 30 mg/kg (ip) in 2% tween; food given after 30 min, weighed 2 hr later; vs vehicle; read-out: inhibition of feeding (2 hr food intake). As for the experimental part: Protocol for IP Administration of Compounds in Fasted Long-Evans Male Rats
Male Long Evans rats (85-100 g)were obtained from Harlan (Indianapolis, Ind.) and were given at least a one week acclimation period to Ambients animal care facilities. Animals were individually housed and were provided ad libitum food and water. For testing, rats were fasted for 18-20 hr (overnight) prior to the start of the experiment. On the test day, test compounds or vehicle was administered via the intraperitoneal (i.p.) route of administration. Test compounds were suspended in a 2% tween solution; the 2% tween solution was used as the vehicle treatment (control group). Group sizes for each treatment were 6-8 animals. After 30 min, premeasured food was placed into the cages. Two hours later, the food was weighed again. The difference between 2 hr weight and the premeasured weight was taken as 2 hr food intake.

In the next data set the test system is Male BALB-C mice. The experiment in a line: IP administration of compounds in fasted male BALB-C mice, 2 hr food intake. The format is in vivo. To be noted: Mus musculus; male BALB-C mice fasted 18-20 hr; 30 mg/kg (ip) in 2% tween; food given after 30 min, weighed 2 hr later; vs vehicle; read-out: inhibition of feeding (2 hr food intake). The text has this:
Protocol For IP Administration Of Compounds In Male BALB-C Mice.
Male BALB-C mice (20-25 g)were obtained from Charles Rivers (Wilmington, Mass.) and were given at least a one week acclimation period to Amgen's animal care facilities. Animals were housed 10/cage and were provided ad libitum food and water. For testing, mice were fasted for 18-20 hr (overnight) prior to the start of the experiment. On the day of the experiment, mice were removed from group housing and placed into individual cages (without food). Test compounds or vehicle was then administered via the intraperitoneal (i.p.) route of administration. Test compounds were suspended in a 2% tween solution; the 2% tween solution was used as the vehicle treatment (control group). Group sizes for each treatment were 6-8 animals. After 30 min, premeasured food was placed into the cages. Two hours later, the food was weighed again. The difference between 2 hr weight and the premeasured weight was taken as 2 hr food intake.

The structures appear in SMILES notation. Where a name gives a salt, the structure may show the parent alone.

In the case of `Cc1nc(N2CCCCC2)c2[nH]c(-c3ccc(S(C)(=O)=O)cc3)cc2n1` [Example 142, 1-[2-Methyl-4-piperidylpyrrolo[4,5-d]pyrimidin-6-yl]-4-(methylsulfonyl)benzene Hydrochloride Monohydrate], the inhibition in vivo at 30 mg/kg in the data set on Long-Evans male rats is not below 10%. In the case of `CCCNc1nc(N2CCCCC2)c2[nH]c(-c3ccccc3)cc2n1` [Example 93, (6-Phenyl-4-piperidylpyrrolo[3,2-d]pyrimidine-2-yl)propylamine Hydrochloride], in the data set on Male BALB-C mice, the inhibition in vivo at 30 mg/kg was not below 10%. Take `CCCCc1cc2nc(C)nc(N3CCCCC3)c2[nH]1` [Example 148, 6-Butyl-2-methyl-4-piperidylpyrrolo[3,2-d]pyrimidine Hydrochloride]: the inhibition in vivo at 30 mg/kg in the data set on Long-Evans male rats is not below 10%. In the case of `Cc1nc(N2CCc3ccccc32)c2[nH]c(-c3ccccc3)cc2n1` [Example 215, 4-Indolinyl-2-methyl-6-phenylpyrrolo[3,2-d]pyrimidine Hydrochloride Hydrate], in the data set on Male BALB-C mice, the inhibition in vivo at 30 mg/kg is not below 10%. Still for that read-out and setting: as for `Cc1nc(N2CCCCC2)c2[nH]c(-c3ccc4c(c3)OCO4)cc2n1` [Example 114, 5-[2-Methyl-4-piperidylpyrrolo[4,5-d]pyrimidin-6-yl]-2H-benzo[d]1,3-dioxolane Hydrochloride Monohydrate], the figure is not below 10%. With `Cc1nc(N2CC=CC2)c2oc(-c3ccccc3)cc2n1` [Example 216c, 2-Methyl-6-phenyl-4-(3-pyrrolinyl)furano[3,2-d]pyrimidine Hydrochloride Hydrate], in the data set on Long-Evans male rats, the inhibition in vivo at 30 mg/kg was not below 10%.

Regarding `Cc1nc(N2CCCCC2)c2[nH]c(-c3ccc(O)cc3)c(C)c2n1` [Example 137, 4-[2,7-Dimethyl-4-piperidylpyrrolo[4,5-d]pyrimidin-6-yl]phenol Hydrochloride Hydrate], the inhibition in vivo at 30 mg/kg with Long-Evans male rats was not below 10%. With `Cc1nc(N2CCOCC2)c2[nH]c(-c3ccc(F)c(F)c3)cc2n1` [Example 141, 4-[6-(3,4-Difluorophenyl)-2-methylpyrrolo[2,3-e]pyrimidin-4-yl]morpholine Hydrochloride], the inhibition in vivo at 30 mg/kg with Long-Evans male rats was not below 10%. Take `Cc1nc(N2CCCCC2)c2[nH]c(-c3ccccn3)cc2n1` [Example 77, 2-Methyl-4-piperidyl-6-(2-pyridyl)pyrrolo[3,2-d]pyrimidine Hydrochloride Hydrate]: the inhibition in vivo at 30 mg/kg in the data set with Male BALB-C mice was not below 10%.

On to `Cc1nc(-n2cccn2)c2[nH]c(-c3ccccc3)cc2n1` [Example 218, 2-Methyl-6-phenyl-4-pyrazolypyrrolo[3,2-d]pyrimidine Hydrochloride Hydrate], for which the inhibition in vivo at 30 mg/kg in the data set with Male BALB-C mice is not below 10%. On the same count and under the same terms, as for `Cc1nc(N2CCCCC2)c2[nH]c(-c3cccc(C(F)(F)F)c3)cc2n1` [Example 107, 2-Methyl-4-piperidyl-6-[3-(trifluoromethyl)phenyl]pyrrolo[3,2-d]pyrimidine Hydrochloride Monohydrate], the figure is not below 10%; as for `c1ccc(-c2cc3ncnc(N4CCCCC4)c3[nH]2)cc1` [Example 30, 6-Phenyl-4-piperidylpyrrolo[3,2-d]pyrimidine Hydrochloride], not below 10%; as for `Cc1nc(N2CCCC2)c2[nH]c(-c3ccccc3)cc2n1` [Example 9, 2-Methyl-6-phenyl-4-pyrrolidinylpyrrolo[3,2-d]pyrimidine], not below 10%. Same read-out and setting: the figure for `Cc1nc(N2CC=CC2)c2[nH]c(-c3ccc(F)cc3)cc2n1` [Example 199, 6-(4-Fluorophenyl)-2-methyl-4-(3-pyrrolinyl)pyrrolo[3,2-d]pyrimidine Hydrochloride Hydrate] is not below 10%.

With `Cc1nc(N2CCCCC2)c2[nH]c(CCc3ccccc3)cc2n1` [Example 168, 2-Methyl-6-(2-phenylethyl)-4-piperidylpyrrolo[3,2-d]pyrimidine Hydrochloride Hydrate], in the data set with Long-Evans male rats, the inhibition in vivo at 30 mg/kg was not below 10%. Regarding `COc1ccc(-c2cc3nc(C)nc(N4CCCCC4)c3[nH]2)cc1OC` [Example 126, 1,2-Dimethoxy-4-(2-methyl-4-piperidylpyrrolo[4,5-d]pyrimidin-6-yl)benzene Hydrochloride Hydrate], the inhibition in vivo at 30 mg/kg in the data set on Long-Evans male rats is not below 10%. Still for that read-out and setting: the figure for `Cc1nc(N2CCCCC2)c2[nH]c(-c3ccc(F)cc3)c(C)c2n1` [Example 134, 6-(4-Fluorophenyl)-2,7-dimethyl-4-piperidylpyrrolo[3,2-d]pyrimidine Hydrochloride Hydrate] is not below 10%. On the same count and under the same terms, the figure for `Cc1nc(N2CCCCC2)c2[nH]c(-c3ccccc3)c(C)c2n1` [Example 90, 2,7-Dimethyl-6-phenyl-4-piperidylpyrrolo[3,2-d]pyrimidine Hydrochloride Monohydrate] is not below 10%. Usually melting point stands for the temperature, or range, at which the solid turns liquid. In turn, `COc1cc(-c2cc3nc(C)nc(N4CCCCC4)c3[nH]2)cc(OC)c1OC.Cl` [Example 143, 1,2,3-Trimethoxy-5-[2-methyl-4-piperidylpyrrolo[4,5-d]pyrimidin-6-yl]benzene Hydrochloride] registered a melting point of 275 to 277 °C. For the same molecule, the inhibition in vivo at 30 mg/kg in the data set on Long-Evans male rats is not below 10%. For `CN(C)c1nc(N2CCCCC2)c2[nH]c(-c3ccccc3)cc2n1` [Example 203, Hydrochloride Hydrate], the inhibition in vivo at 30 mg/kg in the data set with Long-Evans male rats is not below 10%. The same measure, in the same setting: the figure for `Cc1nc(N2CCCCC2)c2[nH]c(-c3ccc4ccccc4c3)cc2n1` [Example 160, 2-Methyl-6-(2-naphthyl)-4-piperidylpyrrolo[3,2-d]pyrimidine Hydrochloride Hydrate] is not below 10%; for `Cc1nc(N2CCCCC2)c2[nH]c(-c3cccc(Cl)c3)cc2n1` [Example 70e, 6-(3-Chlorophenyl)-2-methyl-4-piperidylpyrrolo[3,2-d]pyrimidine Hydrochloride Monohydrate] it is not below 10%; for `Cc1nc(N2CCCCC2)c2[nH]c(C)cc2n1` [Example 104, 2,6-Dimethyl-4-piperidylpyrrolo[3,2-d]pyrimidine Hydrochloride Hydrate] it is not below 10%. Same read-out and setting: as for `Cc1nc(N2CCCCC2)c2[nH]c(-c3ccccc3F)cc2n1` [Example 102, 6-(2-Fluorophenyl)-2-methyl-4-piperidylpyrrolo[3,2-d]pyrimidine Hydrochloride Monohydrate], the figure is not below 10%; as for `Fc1ccc(-c2cc3nc(C4CC4)nc(N4CCCCC4)c3[nH]2)cc1` [Example 209c, 2-Cyclopropyl-6-(4-fluorophenyl)-4-piperidylpyrrolo[3,2-d]pyrimidine Hydrochloride Hydrate], not below 10%; as for `Cc1nc(N2CCCCC2)c2[nH]c(-c3ccc4c(c3)Cc3ccccc3-4)cc2n1` [Example 127, 6-Fluoren-2-yl-2-methyl-4-piperidylpyrrolo[3,2-d]pyrimidine Hydrochloride Hydrate], not below 10%.

Consider `CCc1nc(N2CCc3ccccc3C2)c2[nH]c(-c3ccccc3)cc2n1` [Example 202, 2-Ethyl-6-phenyl-4-(2-1,2,3,4-tetrahydroisoquinolyl)pyrrolo[3,2-d]pyrimidine Hydrochloride Monohydrate], for which the inhibition in vivo at 30 mg/kg with Long-Evans male rats is not below 10%. Still for that read-out and setting: as for `Cc1nc(N2CC=CC2)c2[nH]c(-c3ccc(Cl)c(Cl)c3)cc2n1` [Example 200d, 6-(3,4-Dichlorophenyl)-2-methyl-4-(3-pyrrolinyl)pyrrolo[3,2-d]pyrimidine Hydrochloride Hydrate], the figure is not below 10%; as for `CC(=O)c1ccc(-c2cc3nc(C)nc(N4CCCCC4)c3[nH]2)cc1` [Example 150, 1-[4-(2-Methyl-4-piperidylpyrrolo[4,5-d]pyrimidin-6-yl)phenyl]ethan-1-one Hydrochloride Hydrate], not below 10%. For `Cc1nc(N2CCCCC2)c2[nH]c(-c3ccc(O)cc3)cc2n1.Cl` (hydrate or solvate) [Example 72, 2-methyl-4-piperidyl-6-(4-hydroxyphenyl)pyrrolo[3,2-d]pyrimidine], the melting point is > 300 °C (dec.). On to `CC(C)c1nc(N2CCCCC2)c2[nH]c(-c3ccccc3)cc2n1` [Example 19d, 2-Isopropyl-6-phenyl-4-piperidylpyrrolo[3,2-d]pyrimidine], for which the melting point was 269.5 to 272 °C. Still for that read-out and setting: the figure for `Cc1nc(N2CCCCC2)c2[nH]c(-c3ccc(F)cc3)c(C)c2n1.Cl` (hydrate or solvate) [Example 134, 6-(4-Fluorophenyl)-2,7-dimethyl-4-piperidylpyrrolo[3,2-d]pyrimidine Hydrochloride Hydrate] is more than 280 °C; for `Cc1nc(N2CCCCC2)c2[nH]c(C34C[C@H]5C[C@@H](C3)C[C@@H](C4)C5)cc2n1.Cl` (hydrate or solvate) [Example 81d, 6-Adamantanyl-2-methyl-4-piperidylpyrrolo[3,2-d]pyrimidine Hydrochloride Monohydrate] it is more than 280 °C.
